Results published in patent publication US7105524B2, “Pesticidal and parasiticidal di-and trifluorosubstituted alkene compounds” (BASF Aktiengesellschaft, priority 2001, dated 2006).

Key:
[1] = system: root-knot nematode Meloidogyne incognita; test: Soil nematicide assay targeting root-knot nematode Meloidogyne incognita on tomato (soil drench); assay type: in vivo; details: tomato plants, one month after inoculation with 1000 J2 larvae
Description: Soil nematicide assay targeting root-knot nematode Meloidogyne incognita on tomato The test compounds were solubilized in acetone and diluted with water and surfactant to the required test concentrations. The test solution was applied as a soil drench to transplanted tomato plants in cells with sandy loam mixed with sand. One thousand root-knot J2 larvae were applied as an aqueous suspension drenched on the soil surface. The plants were maintained in the greenhouse and, one month after inoculation, the plant roots were washed free of soil. The root-knot galls on the root system of each plant were counted. Treatments were replicated three times. Percent control of root-knot was calculated for the treated plants relative to control plants treated with the acetone-surfactant carrier using the following formula: % control of root knot galls=100×((median number of galls on control plants−median number of galls on treated plants)/median number of galls on control plants) In this test, compound A which is known from EP-A 1 000 946 as example 1 acted as comparison active ingredient.

[2] = system: root-knot nematode Meloidogyne sp; test: Soil nematicide assay targeting root-knot nematode Meloidogyne sp on tomato (granular formulation); assay type: in vivo; details: 1 kg/ha, granular formulation of 5% active ingredient on gypsum carrier, infested soil, tomato plants, visual estimation
Protocol: Soil nematicide assay targeting root-knot nematode Meloidogyne sp on tomato
The test compounds were applied as granular formulations of 5% active ingredient on a gypsum carrier to soil infested with root-knot nematodes. Tomato plants were transplanted into the soil. After galling developed in untreated control plants, tomato plants were harvested and the roots assessed for root knot galling. Based on visual estimation, the percentage of the tomato root-mass that was galled was determined. Percent control root-knot was calculated for the treated plants relative to untreated control plants using the following formula: % control of root knot galling=100×((galling level of untreated plants−galling level of treated plants)/galling level of untreated plants)
In this test, compound A which is known from EP-A 1 000 946 as example 1 acted as comparison active ingredient.

FC(F)=C(F)CCSc1nc2cccnc2s1 [I.1—1, 2-(3,4,4-Trifluoro-but-3-enylsulfanyl)-thiazolo[5,4-b]pyridine]
% control of root knot galls ([1]; 0.16 kg/ha): 94%
% control of root knot galls ([1]; 0.63 kg/ha): 100%
% control of root knot galling [2]: 47%

FC(F)=C(F)CCSc1nc2ncccc2s1 [compound A]
% control of root knot galls ([1]; 0.16 kg/ha): 13%
% control of root knot galls ([1]; 0.63 kg/ha): 71%
% control of root knot galling [2]: 25%
